PubChem BioAssay (NCI)
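Growth conditions: 96-well plates. Treatment: test compound, 48 hours, 5 concentrations. Analysis: linear interpolation between bracketing concentrations; unreached endpoints set to highest concentration. GI50 = concentration required for 50% inhibition of growth. The concentration for full growth arrest is given as TGI.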

Legend:
Assay in all cases: NCI-60 cell line screen, 48 h
786-0 renal = test system: 786-0 renal
SK-MEL-28 melanoma = test system: SK-MEL-28 melanoma
EKVX NSCLC = test system: EKVX NSCLC
SF-539 CNS = test system: SF-539 CNS
NCI-H226 lung = test system: NCI-H226 lung
HS 578T breast = test system: HS 578T breast
MDA-MB-231 breast = test system: MDA-MB-231 breast
SW-620 colon = test system: SW-620 colon
SK-OV-3 ovarian = test system: SK-OV-3 ovarian
HT29 colon = test system: HT29 colon
COLO 205 colon = test system: COLO 205 colon
DU-145 prostate = test system: DU-145 prostate
RPMI-8226 leukemia = test system: RPMI-8226 leukemia
OVCAR-8 ovarian = test system: OVCAR-8 ovarian
NCI-H23 lung = test system: NCI-H23 lung
CCRF-CEM leukemia = test system: CCRF-CEM leukemia
BT-549 breast = test system: BT-549 breast
NCI/ADR-RES ovarian = test system: NCI/ADR-RES ovarian
UACC-257 melanoma = test system: UACC-257 melanoma
SNB-75 CNS = test system: SNB-75 CNS
A498 renal = test system: A498 renal
UO-31 renal = test system: UO-31 renal
HCC-2998 colon = test system: HCC-2998 colon
HOP-62 NSCLC = test system: HOP-62 NSCLC
HCT-15 colon = test system: HCT-15 colon
OVCAR-5 ovarian = test system: OVCAR-5 ovarian
MCF7 breast = test system: MCF7 breast
T-47D breast = test system: T-47D breast
UACC-62 melanoma = test system: UACC-62 melanoma
MALME-3M melanoma = test system: MALME-3M melanoma
HCT-116 colon = test system: HCT-116 colon
TK-10 renal = test system: TK-10 renal
SF-295 CNS = test system: SF-295 CNS
MDA-MB-435 = test system: MDA-MB-435
LOX IMVI melanoma = test system: LOX IMVI melanoma
PC-3 prostate = test system: PC-3 prostate
HOP-92 NSCLC = test system: HOP-92 NSCLC
SK-MEL-2 melanoma = test system: SK-MEL-2 melanoma
M14 melanoma = test system: M14 melanoma
OVCAR-4 ovarian = test system: OVCAR-4 ovarian
OVCAR-3 ovarian = test system: OVCAR-3 ovarian
ACHN renal = test system: ACHN renal
SK-MEL-5 melanoma = test system: SK-MEL-5 melanoma
SN12C renal = test system: SN12C renal
RXF 393 renal = test system: RXF 393 renal
K-562 leukemia = test system: K-562 leukemia
KM12 colon = test system: KM12 colon
U251 CNS = test system: U251 CNS
SNB-19 CNS = test system: SNB-19 CNS
A549 NSCLC = test system: A549 NSCLC
MOLT-4 leukemia = test system: MOLT-4 leukemia
NCI-H460 lung = test system: NCI-H460 lung
SF-268 CNS = test system: SF-268 CNS
CAKI-1 renal = test system: CAKI-1 renal
HL-60(TB) leukemia = test system: HL-60(TB) leukemia
IGROV1 ovarian = test system: IGROV1 ovarian
NCI-H522 lung = test system: NCI-H522 lung

## COC1C(CO)OC(n2c3ccccc3c3c4c(c5c6ccccc6[nH]c5c32)C(=O)NC4=O)C(OC(=O)C(N)CCCCN)C1O (stereo not drawn)
786-0 renal
  GI50: 0.111 µM
  TGI: 3.3 µM
SK-MEL-28 melanoma
  GI50: 0.165 µM
  TGI: 2.26 µM
EKVX NSCLC
  GI50: 0.592 µM
  TGI: 3.15 µM
SF-539 CNS
  GI50: 0.0173 µM
  TGI: 0.139 µM
NCI-H226 lung
  GI50: 0.0371 µM
  TGI: 0.291 µM
HS 578T breast
  GI50: 0.299 µM
  TGI: 2.26 µM
MDA-MB-231 breast
  GI50: 0.0504 µM
  TGI: 1.01 µM
SW-620 colon
  GI50: 0.0108 µM
  TGI: 1.67 µM
SK-OV-3 ovarian
  GI50: 0.225 µM
  TGI: 3.91 µM
HT29 colon
  GI50: 0.357 µM
  TGI: 12.9 µM
COLO 205 colon
  GI50: 0.0963 µM
  TGI: 5.67 µM
DU-145 prostate
  GI50: 0.168 µM
  TGI: 3.21 µM
RPMI-8226 leukemia
  GI50: 1.33 µM
  TGI: 11.6 µM
OVCAR-8 ovarian
  GI50: 0.119 µM
  TGI: 6.97 µM
NCI-H23 lung
  GI50: 0.2 µM
  TGI: 1.53 µM
CCRF-CEM leukemia
  GI50: 0.0387 µM
  TGI: 2.83 µM
BT-549 breast
  GI50: 0.165 µM
  TGI: 2.48 µM
NCI/ADR-RES ovarian
  GI50: 1.4 µM
  TGI: 21.9 µM
UACC-257 melanoma
  GI50: 0.437 µM
  TGI: 5.3 µM
SNB-75 CNS
  GI50: 0.156 µM
  TGI: 3.66 µM
A498 renal
  GI50: 0.005 µM
  TGI: 0.23 µM
UO-31 renal
  GI50: 0.215 µM
  TGI: 0.903 µM
HCC-2998 colon
  GI50: 0.173 µM
  TGI: 1.5 µM
HOP-62 NSCLC
  GI50: 0.144 µM
  TGI: 2.4 µM
HCT-15 colon
  GI50: 1.92 µM
  TGI: 9.53 µM
OVCAR-5 ovarian
  GI50: 0.386 µM
  TGI: 2.8 µM
MCF7 breast
  GI50: 0.0796 µM
  TGI: 5.45 µM
T-47D breast
  GI50: 0.0145 µM
  TGI: 0.187 µM
UACC-62 melanoma
  GI50: 0.0281 µM
  TGI: 0.185 µM
MALME-3M melanoma
  GI50: 0.0245 µM
  TGI: 0.157 µM
HCT-116 colon
  GI50: 0.0834 µM
  TGI: 50 µM
TK-10 renal
  GI50: 0.371 µM
  TGI: 1.46 µM
SF-295 CNS
  GI50: 0.165 µM
  TGI: 1.95 µM
MDA-MB-435
  GI50: 0.123 µM
  TGI: 1.43 µM
LOX IMVI melanoma
  GI50: 0.005 µM
  TGI: 0.0351 µM
PC-3 prostate
  GI50: 0.116 µM
  TGI: 2.58 µM
HOP-92 NSCLC
  GI50: 0.0353 µM
  TGI: 0.735 µM
SK-MEL-2 melanoma
  GI50: 0.505 µM
  TGI: 1.71 µM
M14 melanoma
  GI50: 0.132 µM
  TGI: 3.23 µM
OVCAR-4 ovarian
  GI50: 0.593 µM
  TGI: 5.71 µM
OVCAR-3 ovarian
  GI50: 0.144 µM
  TGI: 1.16 µM
ACHN renal
  GI50: 0.0226 µM
  TGI: 0.169 µM
SK-MEL-5 melanoma
  GI50: 0.0426 µM
  TGI: 0.125 µM
SN12C renal
  GI50: 0.0237 µM
  TGI: 0.0562 µM
RXF 393 renal
  GI50: 0.0537 µM
  TGI: 0.815 µM
K-562 leukemia
  GI50: 0.0308 µM
  TGI: 8.99 µM
KM12 colon
  GI50: 0.0529 µM
  TGI: 0.599 µM
U251 CNS
  GI50: 0.0128 µM
  TGI: 0.311 µM
SNB-19 CNS
  GI50: 0.0889 µM
  TGI: 14.2 µM
A549 NSCLC
  GI50: 0.962 µM
  TGI: 9.04 µM
MOLT-4 leukemia
  GI50: 0.056 µM
  TGI: 13.3 µM
NCI-H460 lung
  GI50: 1.06 µM
  TGI: 3.78 µM
SF-268 CNS
  GI50: 0.0232 µM
  TGI: 0.721 µM
CAKI-1 renal
  GI50: 0.0232 µM
  TGI: 0.0655 µM
HL-60(TB) leukemia
  GI50: 0.00592 µM
  TGI: 0.0597 µM
IGROV1 ovarian
  GI50: 0.102 µM
  TGI: 2.93 µM
NCI-H522 lung
  GI50: 0.0157 µM
  TGI: 0.44 µM

## O=c1c2cc(I)ccc2nc(-c2cccs2)n1-c1ccc(S(=O)(=O)Nc2nccs2)cc1
786-0 renal
  GI50: 54.1 µM
  TGI: > 100 µM
SK-MEL-28 melanoma
  GI50: 78.5 µM
  TGI: > 100 µM
EKVX NSCLC
  GI50: 20.8 µM
  TGI: 55.5 µM
SF-539 CNS
  GI50: 22.6 µM
  TGI: 44.5 µM
NCI-H226 lung
  GI50: 24.9 µM
  TGI: 74.8 µM
HS 578T breast
  GI50: 26.2 µM
  TGI: 84.1 µM
MDA-MB-231 breast
  GI50: 25.1 µM
  TGI: 73.5 µM
SW-620 colon
  GI50: 31.3 µM
  TGI: > 100 µM
SK-OV-3 ovarian
  GI50: 66.6 µM
  TGI: > 100 µM
HT29 colon
  GI50: > 100 µM
  TGI: > 100 µM
COLO 205 colon
  GI50: 33.5 µM
  TGI: > 100 µM
DU-145 prostate
  GI50: 27.4 µM
  TGI: > 100 µM
RPMI-8226 leukemia
  GI50: 38.4 µM
  TGI: > 100 µM
OVCAR-8 ovarian
  GI50: 32 µM
  TGI: 98 µM
NCI-H23 lung
  GI50: 22.5 µM
  TGI: > 100 µM
CCRF-CEM leukemia
  GI50: 38.4 µM
  TGI: > 100 µM
BT-549 breast
  GI50: 22.3 µM
  TGI: 60.6 µM
NCI/ADR-RES ovarian
  GI50: 88.1 µM
  TGI: > 100 µM
UACC-257 melanoma
  GI50: 41.8 µM
  TGI: > 100 µM
SNB-75 CNS
  GI50: > 100 µM
  TGI: > 100 µM
A498 renal
  GI50: 22.7 µM
  TGI: 71.5 µM
UO-31 renal
  GI50: 22.6 µM
  TGI: 51.6 µM
HCC-2998 colon
  GI50: 29.5 µM
  TGI: 62.5 µM
HOP-62 NSCLC
  GI50: 42.8 µM
  TGI: > 100 µM
HCT-15 colon
  GI50: 42.6 µM
  TGI: > 100 µM
OVCAR-5 ovarian
  GI50: 35.3 µM
  TGI: > 100 µM
MCF7 breast
  GI50: 41.7 µM
  TGI: > 100 µM
T-47D breast
  GI50: 34.4 µM
  TGI: > 100 µM
UACC-62 melanoma
  GI50: 22.8 µM
  TGI: 52.1 µM
MALME-3M melanoma
  GI50: 36.7 µM
  TGI: 99.9 µM
HCT-116 colon
  GI50: 37.1 µM
  TGI: > 100 µM
TK-10 renal
  GI50: 35.2 µM
  TGI: > 100 µM
SF-295 CNS
  GI50: 27.6 µM
  TGI: > 100 µM
MDA-MB-435
  GI50: 36.8 µM
  TGI: > 100 µM
LOX IMVI melanoma
  GI50: 28.9 µM
  TGI: 82.8 µM
PC-3 prostate
  GI50: 38.4 µM
  TGI: > 100 µM
HOP-92 NSCLC
  GI50: 28.8 µM
  TGI: > 100 µM
SK-MEL-2 melanoma
  GI50: 33.2 µM
  TGI: > 100 µM
M14 melanoma
  GI50: > 100 µM
  TGI: > 100 µM
OVCAR-4 ovarian
  GI50: 86.9 µM
  TGI: > 100 µM
OVCAR-3 ovarian
  GI50: 25.3 µM
  TGI: 83.8 µM
ACHN renal
  GI50: 41.3 µM
  TGI: > 100 µM
SK-MEL-5 melanoma
  GI50: 19.7 µM
  TGI: 44.2 µM
SN12C renal
  GI50: 37.2 µM
  TGI: > 100 µM
RXF 393 renal
  GI50: 40 µM
  TGI: > 100 µM
K-562 leukemia
  GI50: 36.6 µM
  TGI: > 100 µM
KM12 colon
  GI50: 39.2 µM
  TGI: > 100 µM
U251 CNS
  GI50: 27.2 µM
  TGI: 81.7 µM
SNB-19 CNS
  GI50: 41.9 µM
  TGI: > 100 µM
A549 NSCLC
  GI50: 49.1 µM
  TGI: > 100 µM
MOLT-4 leukemia
  GI50: 61.4 µM
  TGI: > 100 µM
NCI-H460 lung
  GI50: 34.2 µM
  TGI: > 100 µM
SF-268 CNS
  GI50: 29.6 µM
  TGI: > 100 µM
CAKI-1 renal
  GI50: 21.1 µM
  TGI: 52 µM
HL-60(TB) leukemia
  GI50: 50.4 µM
  TGI: > 100 µM
IGROV1 ovarian
  GI50: 33.2 µM
  TGI: > 100 µM
NCI-H522 lung
  GI50: 25.9 µM
  TGI: 76 µM
